Drawing on the NIST ThermoML archive (doi:10.1016/j.jct.2015.11.006), this text covers refractive index for three compounds.

Numbers after ± are expanded uncertainties.

The nature of this data set: refractive index (Na D-line) (dimensionless). The conditions noted are these: 298.15 K; 101.33 kPa; Liquid; Standard Abbe refractometry.
For the compound `CCO` [ethanol], the refractive index (in general, the speed of light in vacuum divided by its phase velocity in the sample) is 1.3591 ± 0.0005.

With `CC(C)O` [propan-2-ol], the refractive index came to 1.3756 ± 0.0005.

For the compound `O` [water], the refractive index was found to be 1.3326 ± 0.0005.
